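How tested: cells in 96-well plates exposed to compound for 48 hours at five concentrations. GI50 marks 50% less growth.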 The source made the active and inactive calls. Cut-off read from the data, not from the text of the source: active = GI50 up to about 1.1 µM and inactive = higher.
Experiments:
Experiment in all cases: NCI-60 cell line screen, 48 h
[1] = system: A549
[2] = system: BT-549
[3] = system: COLO 205
[4] = system: DU-145
[5] = system: HCT-116
[6] = system: HL-60
[7] = system: KM12
[8] = system: MDA-MB-435
[9] = system: NCI-H226
[10] = system: NCI-H23
[11] = system: OVCAR-3
[12] = system: OVCAR-4
[13] = system: OVCAR-5
[14] = system: OVCAR-8
[15] = system: RPMI-8226
[16] = system: SF-295
[17] = system: SK-MEL-28
[18] = system: SNB-75
[19] = system: UACC-62
[20] = system: A498

Measured: GI50

COc1ccc(C[C@H]2COC(=O)[C@@H]2Cc2ccc(Br)cc2)cc1OC
inactive: [1] 20 µM | [2] 17.5 µM | [3] 21.2 µM | [4] 16.8 µM | [5] 19.1 µM | [6] 20.4 µM | [7] 21.9 µM | [8] 19.5 µM | [9] 28.8 µM | [10] 9.06 µM | [11] 15.2 µM | [12] 19.7 µM | [13] 23.4 µM | [14] 30.7 µM | [15] 17.9 µM | [16] 14.5 µM | [17] 42.2 µM | [18] 23.3 µM | [19] 27.8 µM

COC1CC(OC2C(C)OC(OC3C(C)OC(OC4C(C)OC(O[C@H]5CC[C@@]6(C)C(=CC[C@]7(O)[C@@H]6C[C@@H](OC(C)=O)[C@@]6(C)[C@]7(O)CC[C@@]6(O)C(C)=O)C5)CC4OC)CC3OC)CC2OC)OC(C)C1O (stereo partly specified)
inactive: [1] > 25 µM | [2] > 25 µM | [3] > 25 µM | [4] > 25 µM | [5] > 25 µM | [6] > 25 µM | [7] > 25 µM | [8] > 25 µM | [9] > 25 µM | [10] > 25 µM | [11] > 25 µM | [12] > 25 µM | [13] > 25 µM | [14] > 25 µM | [15] > 25 µM | [16] > 25 µM | [18] > 25 µM | [19] > 25 µM

Cn1c(=O)c2ccccc2[n+]2c(-c3cccc([N+](=O)[O-])c3)csc12
inactive: [20] 58.9 µM | [1] 91.4 µM | [3] > 100 µM | [4] > 100 µM | [5] 67.5 µM | [6] 23 µM | [7] 58.2 µM | [8] 63.7 µM | [9] > 100 µM | [10] > 100 µM | [11] 39.4 µM | [12] > 100 µM | [13] > 100 µM | [14] 18 µM | [15] 28.1 µM | [16] 44.8 µM | [17] > 100 µM | [18] 12.9 µM | [19] 70.3 µM

CC1=NN(c2nc(N)nc(NS(=O)(=O)c3cc(C)c(Cl)cc3S)n2)C(C)(C)C1
inactive: [20] > 10 µM | [1] > 10 µM | [2] > 10 µM | [3] > 10 µM | [4] > 10 µM | [5] > 10 µM | [6] > 10 µM | [7] > 10 µM | [9] > 10 µM | [10] > 10 µM | [11] > 10 µM | [12] > 10 µM | [13] > 10 µM | [14] > 10 µM | [15] > 10 µM | [16] > 10 µM | [17] > 10 µM | [18] > 10 µM

COc1nc(N)c(C#N)c(C#N)c1C#N
inactive: [1] > 10 µM | [2] > 10 µM | [3] > 10 µM | [4] > 10 µM | [5] > 10 µM | [6] > 10 µM | [7] > 10 µM | [8] > 10 µM | [10] > 10 µM | [11] > 10 µM | [12] > 10 µM | [13] > 10 µM | [14] > 10 µM | [15] > 10 µM | [16] > 10 µM | [17] > 10 µM | [18] > 10 µM

Cc1ccc(/N=C2\SC(=S)N(CCC[N+](C)(C)C)\C2=N/c2ccc(C)cc2)cc1
inactive: [20] 17.2 µM | [1] 15.6 µM | [2] 4.22 µM | [3] 10.3 µM | [5] 11 µM | [6] 1.99 µM | [7] 24.4 µM | [9] 21.7 µM | [10] 14.5 µM | [13] 14.5 µM | [14] 15.4 µM | [15] 6.01 µM | [17] 7.64 µM | [18] 2.94 µM | [19] 10 µM

O=S(=O)(/N=S(/Nc1ccccc1)C(F)(F)Cl)c1ccccc1 (stereo unspecified)
inactive: [20] > 100 µM | [1] > 100 µM | [3] > 100 µM | [4] > 100 µM | [5] > 100 µM | [6] > 100 µM | [7] > 100 µM | [8] > 100 µM | [9] > 100 µM | [10] > 100 µM | [11] > 100 µM | [12] > 100 µM | [13] > 100 µM | [14] > 100 µM | [15] > 100 µM | [16] > 100 µM | [17] > 100 µM | [18] > 100 µM | [19] > 100 µM

COc1cc2c(c(OC)c1OC)C(=O)CC2N (stereo unspecified)
inactive: [20] > 100 µM | [1] > 100 µM | [2] > 100 µM | [3] > 100 µM | [5] > 100 µM | [6] > 100 µM | [7] > 100 µM | [8] > 100 µM | [9] > 100 µM | [10] > 100 µM | [11] > 100 µM | [12] > 100 µM | [13] > 100 µM | [14] > 100 µM | [15] > 100 µM | [16] > 100 µM | [17] > 100 µM | [18] > 100 µM | [19] > 100 µM

COC1O[C@@H]2CCN3C(=O)[C@@H](OC(=O)c4ccc([N+](=O)[O-])cc4)[C@H]1C23 (stereo partly specified)
inactive: [20] 64.7 µM | [1] > 100 µM | [3] > 100 µM | [4] > 100 µM | [5] > 100 µM | [7] > 100 µM | [8] > 100 µM | [9] > 100 µM | [10] > 100 µM | [11] > 100 µM | [13] > 100 µM | [14] > 100 µM | [15] > 100 µM | [16] > 100 µM | [18] > 100 µM | [19] > 100 µM

COc1ccc(-c2c3c(n(C4OC(COC(C)=O)C(OC(C)=O)C(OC(C)=O)C4OC(C)=O)c(=S)c2C#N)CCC3)cc1 (stereo unspecified)
inactive: [1] > 100 µM | [2] 96.4 µM | [3] 86.9 µM | [4] > 100 µM | [5] > 100 µM | [6] > 100 µM | [7] > 100 µM | [8] > 100 µM | [10] > 100 µM | [11] > 100 µM | [12] > 100 µM | [13] > 100 µM | [15] > 100 µM | [16] > 100 µM | [17] > 100 µM | [18] > 100 µM | [19] > 100 µM

CCOC(=O)c1sc2c(c1OC(=O)c1ccco1)c(=O)n(-c1ccccc1)c(=S)n2-c1ccccc1
inactive: [20] 23 µM | [1] 38.6 µM | [3] 19.1 µM | [4] 52.6 µM | [5] 29.7 µM | [6] 24.9 µM | [7] 33.4 µM | [8] 28.1 µM | [9] 22.1 µM | [10] 28.7 µM | [11] 26.5 µM | [12] 26.8 µM | [13] > 100 µM | [14] 26.1 µM | [15] 30.6 µM | [16] > 100 µM | [17] 60.5 µM | [18] 25.9 µM | [19] 26.2 µM

From ChEMBL document CHEMBL1201862, “PubChem BioAssay data set” (2004)
